According to US8519006B2, “Use of sphingosine-1 phosphate (S1P) receptor agonists for the treatment of brain degenerative diseases” (Novartis AG, priority 2003, dated 2013):
Like-named read-outs stand apart in the source and are kept apart here.

Key:
[1] = Acute toxicity (LD50); settings: rat, in vivo, po
[2] = test system: human monocytes; assay: Monocyte chemotaxis toward Aβ (48-blindwell microchemotaxis chamber); format: cell-based
[3] = Acute toxicity (LD50); settings: monkey, in vivo, po
[4] = test system: subjects exhibiting mild to moderate Alzheimer dementia; assay: Clinical trial, EEG and psychometric tests; format: in vivo, human; settings: ca. 0.25 to ca. 10 mg/p.o. once or divided 2 or 3×; tests at 60, 120 and 180 minutes
[5] = test system: human monocytes; assay: Monocyte chemotaxis toward Aβ precursor protein (Aβ-PP); format: cell-based
[6] = monocytes pre-incubated with enzyme blocker, washed, chemotaxis toward Aβ (1 pmol/l), GFX 500 nmol/l, IBMX 10 ng/ml, Tyrphostin-23 10 ng/ml, WTN 10 nmol/l, CTX 1 nmol/l, PTX 1 nmol/l, Medium 1.786 (0.078)
[7] = monocytes pre-incubated with enzyme blocker, washed, chemotaxis toward Aβ-PP (1 pmol/l), GFX 500 nmol/l, IBMX 10 ng/ml, Tyrphostin-23 10 ng/ml, WTN 10 nmol/l, CTX 1 nmol/l, PTX 1 nmol/l, Medium 1.639 (0.076)

| Structure (SMILES) | Chemotaxis Index Aβ Mean (+/−SEM) [2, 6] | Chemotaxis Index Aβ-PP Mean (+/−SEM) [5, 7] | other results |
| --- | --- | --- | --- |
| CCCCCCCCc1ccc(CCC(N)(CO)CO)cc1.Cl [Compound A, 2-amino-2-[2-(4-octylphenyl)ethyl]propane-1,3-diol] | – | – | LD50 [1]: > 10 mg/kg; Chemotaxis Mean (+/−SEM) ([2]; chemotaxis index, monocytes incubated 20 min with 2 ng/ml, washed, chemotaxis toward Aβ [1 pmol/L], Medium 1.825 (0.14)): 1.077 (0.18); LD50 [3]: > 10 mg/kg; condition as evidenced by EEG results and psychometric tests compared with placebo [4]: improved condition |
| CN(C)CCCn1cc(C2=C(c3c[nH]c4ccccc34)C(=O)NC2=O)c2ccccc21 [GFX] | 1.143 (0.08) | 1.098 (0.10) | – |
| CC(C)Cn1c(=O)n(C)c(=O)c2[nH]cnc21 [IBMX] | 1.234 (0.06) | 1.208 (0.09) | – |
| N#CC(C#N)=Cc1ccc(O)c(O)c1 [Tyrphostin-23] | – | – | Chemotaxis Index Aβ Mean (+/−SEM) [2]: 1.435 (0.04); Chemotaxis Index Aβ-PP Mean (+/−SEM) [5]: 1.398 (0.07) |
| COC[C@H]1OC(=O)c2coc3c2[C@@]1(C)C1=C(C3=O)[C@@H]2CCC(=O)[C@@]2(C)C[C@H]1OC(C)=O [WTN] | 1.023 (0.05) | 1.115 (0.08) | – |
